The source of these data is patent US20260335340A1, “PHARMACEUTICAL COMPOSITION FOR TREATING LIVER CANCER COMPRISING CANNABIDIOL AND ANTICANCER AGENT AS ACTIVE INGREDIENTS AND USE THEREOF” (NEOCANNBIO CO., LTD., priority 2022, published 2026).

Where two headings read alike, the source gives them in different places.

Broadly, the IC50 is the concentration that inhibits the measured activity by half.

The test system of experiment [1] is HepG2 cells. The experiment in a line: Apoptotic effect of combined treatment in presence of Chk2 inhibitor. Type of experiment: cell-based, human. The following applies: with cabozantinib and CBD; FIG. 7A. The text has this:
(§1) Next, to determine whether Chk2 activated by combined treatment with cabozantinib and CBD affects apoptosis, the anti-apoptotic effect mediated by Chk2 inhibitors was confirmed.

The test system of experiment [2] is p53. As to the kind of experiment: Phosphorylation of p53 in presence of Chk2 inhibitor. Type of experiment: cell-based, human. The conditions noted are these: with cabozantinib and CBD; FIG. 7B.
Excerpt: as §1

Another experiment relates to apoptotic proteins. As to the kind of experiment: Levels of apoptotic proteins in presence of Chk2 inhibitor. Type of experiment: cell-based, human. The following applies: with cabozantinib and CBD; FIG. 7B.
Excerpt: as §1

Experiment [3] concerns HepG2 cells. As to the kind of experiment: Combined treatment effect of cabozantinib with cannabis-related compounds (cell viability). Type of experiment: cell-based. The conditions noted are these: Homo sapiens, read-out: IC50 with Cabozantinib. Here is the method: (§2) Cells (1.0×10^4) were seeded in 96-well plates and cultured in a medium for 24 hours. The cultured cells were treated with various concentrations of CBD and/or cabozantinib, etc., for 48 hours, and then cell viability was measured using a WST-8 assay kit (Biomax, SEOUL, Korea).
(§3) Specifically, HepG2 cells, a hepatoma cell line, were seeded at a concentration of 1×10^4 cells/well in a 96-well plate and cultured for 24 hours in an incubator at 37° C. and 10% CO2, then they were treated with cabozantinib at various concentrations and treated or not with cannabidiol (20 μM), and then cultured under the same conditions for 48 hours. After completion of the culture, 1/10 of the WST-8 solution (Quanti-Max™, BIOMAX, Korea) was added to the medium, and the culture was further conducted at 37° C. for 1 hour, the absorbance was measured at 450 nm to determine the cell viability, which was expressed as a ratio to the untreated control group. This experiment was conducted independently and repeated three times. Additionally, as positive control groups, sorafenib, lenvatinib, or regorafenib were treated instead of cabozantinib, respectively.

The test system of experiment [4] is HepG2 cells. The experiment in a line: Cell viability (WST-8) of anticancer agents with or without CBD. Type of experiment: cell-based, human. The following applies: for IC50: Homo sapiens, HepG2, 48 h. Here is the method:
Human HCC cell lines (HepG2 and Hep3B) were purchased from the American Type Culture Collection (ATCC). The cell lines were cultured in MEM (Gibco, Carlsbad, MD, USA) and DMEM (Gibco) supplemented with 10% FBS (Gibco), 100 U/mL penicillin, and 100 µg/mL streptomycin, respectively.
as §2, §3

The subject of the next experiment is pCDH-Ctrl HepG2 cells. The experiment in a line: Cell viability in control vector (pCDH-Ctrl) HepG2 cells with or without CBD. Type of experiment: cell-based. The conditions noted are these: Homo sapiens. The procedure: as §2
(§4) Total RNA was extracted from normal liver tissues and cDNA was synthesized to clone a tagged CNR1 and CNR2 coding gene sequences into a pCDH-CMV-EF1-puro vector. The CNR1 and CNR2 genes were amplified by PCR using specific primers including 5′-extension and NotI (NEB, Ipswich, MA, USA) and XbaI (NEB) restriction sites. CloneAmp HiFi PCR Premix ([…], San Jose, CA, USA) was used for PCR reactions. Subsequently, amplicons were obtained from the PCR products by gel extraction, digested with NotI and XbaI enzymes, and cloned into the pCDH-CMV-EF1-puro vector using the In-Fusion® cloning system according to the manufacturer's instructions.
(§5) HepG2 cells were transfected with pCDH-CMV-EF1-puro including the tagged CNR1 and CNR2 coding sequences together with gag-pol and VSV-G plasmids (plasmids 14887 and 8454, respectively; Addgene, Cambridge, MA, USA). […] To confirm the specificity and efficiency of CNR1 and CNR2 overexpression, mRNA expression levels were analyzed using RT-PCR. […]

Another experiment concerns pCDH-CNR1 HepG2 cells. The experiment in a line: Cell viability in CNR1 overexpressing HepG2 cells with or without CBD. Type of experiment: cell-based. The conditions noted are these: Homo sapiens. Here is the method: as §2, §4, §5
The next experiment relates to pCDH-CNR2 HepG2 cells. As to the kind of experiment: Cell viability in CNR2 overexpressing HepG2 cells with or without CBD. The following applies: Homo sapiens. Type of experiment: cell-based. The procedure:
as §2, §4, §5

Another experiment relates to tyrosine kinase c-Met. The conditions noted are these: known; cited from earlier work.
A further experiment deals with VEGFR2. The following applies: known; cited from earlier work.
Experiment [5] concerns p53. As to the kind of experiment: Inhibition of P53 activation by L-ascorbic acid. The following applies: ER stress induced by cabozantinib and CBD; FIG. 11. Type of experiment: cell-based, human. Here is the method: (§6) Next, the effect of L-ascorbic acid (LAA), known to alleviate ER stress, on the inhibition of P53 activation and apoptosis was investigated. As a result, it was confirmed that p53 activation and apoptosis caused by ER stress induced by combined treatment with cabozantinib and CBD were suppressed when LAA was treated (FIG. 11).

Experiment [6] relates to HepG2 cells. The experiment in a line: Inhibition of apoptosis by L-ascorbic acid. Type of experiment: cell-based, human. The conditions noted are these: ER stress induced by cabozantinib and CBD; FIG. 11. The procedure: as §6
[7] abbreviates: HepG2, 48 h, combined with cabozantinib.
Setting [8] is: with 20 μM CBD, read-out: IC50 with CBD.
The mark [9] stands for this setting: without CBD, read-out: IC50 without CBD.
[10] abbreviates: HepG2, read-out: IC50 without CBD.

For the molecule `NC(=O)c1ccc2nc(-c3ccc(Oc4ccc(Cl)cc4)cc3)[nH]c2c1` [BML-277], the “effect on the apoptotic effect of combined treatment” value with HepG2 cells [1] is recorded as “inhibited the apoptotic effect”. Further, the “effect on phosphorylation of p53” value in the experiment on p53 [2] is reported as “reduced the phosphorylation of p53”. For the same molecule, the “effect on levels of apoptotic proteins” value with apoptotic proteins was “reduced”.

Consider `C=C(C)[C@@H]1CCC(C)=C[C@H]1c1c(O)cc(CCCCC)c(C(=O)O)c1O` [CBDA, cannabidiolic acid], for which, in the experiment with HepG2 cells [3] (setting [7]), the IC50 amounted to 35.9 ± 1.35 µM.

Consider `COc1cc2nccc(Oc3ccc(NC(=O)C4(C(=O)Nc5ccc(F)cc5)CC4)cc3)c2cc1OC` [Cabozantinib], for which the IC50 with HepG2 cells [4] (setting [8]) is 15.8 µM; in the experiment with HepG2 cells [4] (setting [9]) it was above 100 µM; in the experiment with pCDH-Ctrl HepG2 cells (HepG2, read-out: IC50 with CBD), 16 µM; in the experiment on pCDH-Ctrl HepG2 cells (setting [10]), above 100 µM; in the experiment with pCDH-CNR1 HepG2 cells (HepG2, read-out: IC50 with CBD) it was 20.2 µM; in the experiment with pCDH-CNR1 HepG2 cells (setting [10]) it was above 100 µM. Besides, the IC50 with pCDH-CNR2 HepG2 cells (HepG2, read-out: IC50 with CBD) was 18.2 µM; in the experiment with pCDH-CNR2 HepG2 cells (setting [10]), above 100 µM. Also, the “toxicity of cabozantinib against HepG2 cells when combine treated with cannabidiol” value in the experiment on HepG2 cells [4] (vs cabozantinib alone, 20 μM CBD, 48 h, FIG. 4A) was “significantly increased”. Moreover, the “inhibition of tyrosine kinase c-Met” value with tyrosine kinase c-Met is “inhibit tyrosine kinase c-Met and VEGFR2”. Besides, in the experiment with VEGFR2, the “inhibition of VEGFR2” value is “inhibit tyrosine kinase c-Met and VEGFR2”.

`O=C1O[C@H]([C@@H](O)CO)C(O)=C1O` [LAA, L-ascorbic acid]: the “effect on p53 activation caused by ER stress” value with p53 [5] was “suppressed”. For the same molecule, the “effect on apoptosis caused by ER stress” value with HepG2 cells [6] is “suppressed”.

On to `COc1cc2nccc(Oc3ccc(NC(=O)NC4CC4)c(Cl)c3)c2cc1C(N)=O` [Lenvatinib], for which the IC50 with HepG2 cells [4] (setting [8]) and in the experiment with HepG2 cells [4] (setting [9]) was above 100 µM in each case.

As to `CNC(=O)c1cc(Oc2ccc(NC(=O)Nc3ccc(Cl)c(C(F)(F)F)c3)c(F)c2)ccn1` [Regorafenib], the values for the concentration for half-maximal inhibition (IC50) in the experiment with HepG2 cells [4] (setting [8]) and with HepG2 cells [4] (setting [9]) were 9.74 µM and 14.1 µM, respectively.

Regarding `CNC(=O)c1cc(Oc2ccc(NC(=O)Nc3ccc(Cl)c(C(F)(F)F)c3)cc2)ccn1` [Sorafenib], the figures for the IC50 in the experiment on HepG2 cells [4] (setting [8]) and with HepG2 cells [4] (setting [9]) were 9.24 µM and 14.6 µM, respectively.

With `CCCCCc1cc(O)c2c(c1)OC(C)(C)[C@@H]1CCC(C)=C[C@@H]21` [THC, tetrahydrocannabinol], the 50% inhibitory concentration (IC50) with HepG2 cells [3] (HepG2, 48 h) stood at 23.9 ± 0.55 µM.

For the molecule `CCCCCc1cc2c(c(O)c1C(=O)O)[C@@H]1C=C(C)CC[C@H]1C(C)(C)O2` [THCA], in the experiment on HepG2 cells [3] (setting [7]), the IC50 amounted to 30.4 ± 0.85 µM.
